Test results as given in patent US20230235374A1, “High Throughput Assays for Detecting Translation Readthrough Inducers” (The Trustees of the University of Pennsylvania, priority 2021, published 2023).

Experiments:
[1] = target: T1, near-cognate aa-tRNA.eEF1A.GTP complex (TC) binding at a stop codon (Saccharomyces cerevisiae, UniProt P02994); conditions: Ng et al., 2021; cited from earlier work
T1 sequence (P02994 2-458 limits assumed): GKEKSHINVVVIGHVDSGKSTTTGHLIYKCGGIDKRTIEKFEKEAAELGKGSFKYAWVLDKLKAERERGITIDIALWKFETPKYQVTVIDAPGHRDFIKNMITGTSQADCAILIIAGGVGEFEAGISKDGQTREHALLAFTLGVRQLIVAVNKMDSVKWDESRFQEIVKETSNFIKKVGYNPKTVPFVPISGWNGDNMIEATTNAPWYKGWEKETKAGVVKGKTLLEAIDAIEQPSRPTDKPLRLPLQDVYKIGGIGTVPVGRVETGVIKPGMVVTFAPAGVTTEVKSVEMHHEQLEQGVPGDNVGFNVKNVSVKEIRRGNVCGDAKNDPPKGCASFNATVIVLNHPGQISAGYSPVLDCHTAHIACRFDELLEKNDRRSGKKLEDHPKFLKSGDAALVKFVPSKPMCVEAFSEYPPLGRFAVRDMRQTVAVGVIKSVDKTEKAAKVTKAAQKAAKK

80S.IRES complex = assay: [3H]-AzAt photoaffinity labeling of 80S.IRES complex; assay type: binding, shrimp (Artemia salina); conditions: FIG. 2C
Protocol: (§1) Photoaffinity labeling with [^3H]-AzAt. Samples in Buffer 4, typically 20 μL, were incubated in the dark (20 min for Stop-POST5 and 80S-IRES complexes, 2 min for release factors) with various concentrations of [^3H]-AzAt at 37° C., transferred to a UV-transparent cuvette which was covered with parafilm to prevent evaporation, and irradiated in a Rayonet photochemical reactor equipped with 300 nm UV lamps for 5 min at room temperature. This was followed by quenching with 2 mM DTT at 37° C. for 5 min under ambient light. The irradiation time gave complete photolysis of the phenyl azide moiety in AzAt. Photolysis was also complete at 5 min in the presence of 1 mM ataluren, ruling out internal filtering effects.
Stop-POST5 and 80S-IRES complexes. 1 μM solutions of either Stop-POST5 or 80S-S.IRES, determined by A260, were photolabeled by [^3H]-AzAt. The sample was then either directly purified by ultracentrifugation through a sucrose cushion to determine the photoincorporation stoichiometry in the complex, or subjected to phenol/chloroform extraction to determine the photoincorporation stoichiometry in the total RNA. […]

[2] = system: premature stop codon in Stop-POST5 complex; assay: PURE-LITE readthrough assay; assay type: biochemical, shrimp (Artemia salina); conditions: FIG. 2A, read-out: apparent EC50, readthrough efficacy
Protocol: FIG. 2A, FIG. 2B, FIG. 2C, FIG. 2D, FIG. 2E, and FIG. 2F are graphs showing AzAt Photoaffinity Labeling and binding. FIG. 2A is a graph showing the readthrough efficacy of AzAt measured by PURE-Lite readthrough assay. AzAt is shown to display similar sigmoidal response as ataluren and ataluren-like compounds (Ng et al., 2018), with the apparent EC50 of 50±10 μM. FIG. 2B illustrates AzAt photoincorporation into Stop-POST5 and the RNA fraction of Stop-POST5. FIG. 2C illustrates AzAt photoincorporation into 80S-IRES and the total RNA isolated from 80S.IRES. All of the labeling stoichiometries in FIG. […] are normalized to the saturation labeling of Stop-POST5, which was equal to 1.2/Stop-POST5. FIG. 2D illustrates AzAt photoincorporation into eRF1 both alone and complexed with eRF3.GDPNP. The values are normalized to the saturation labeling of isolated eRF1. FIG. 2E illustrates inhibition of AzAt photoincorporation by the addition of either ataluren or GJ072. FIG. 2F is a graph showing Photoaffinity labeling of eRF3 alone or within release factor ternary complex. […] FIG. 2G and FIG. 2H are graphs showing the RNA-seq reads coverage as the effective reads per nucleotide. PRE: treated with 300 μM prephotolysed AzAt; PAL: treated with 300 μM AzAt. 26S-rRNA nucleotides 1-45 were unable to be mapped due to the lack of sequence information. […]

Stop-POST5 complex = assay: [3H]-AzAt photoaffinity labeling of Stop-POST5 complex; assay type: binding, shrimp (Artemia salina)
Protocol: as §1
Stop-POST5 and 80S-IRES complexes. 1 μM solutions of either Stop-POST5 or 80S-S.IRES, determined by A260, were photolabeled by [^3H]-AzAt. The sample was then either directly purified by ultracentrifugation through a sucrose cushion to determine the photoincorporation stoichiometry in the complex, or subjected to phenol/chloroform extraction to determine the photoincorporation stoichiometry in the total RNA. To determine the photoincorporation background arising from incomplete removal of noncovalently bound photolyzed AzAt, AzAt was prephotolysed for 5 min before adding to the complex, followed by the 20 min incubation in dark at 37° C. and subsequent sucrose cushion purification or RNA extraction as described above.

SMILES	effect on productive binding of near-cognate TC at a stop codon [1]	photoincorporation stoichiometry into 80S.IRES, lower vs. Stop-POST5 (80S.IRES complex)	EC50 [2]	saturation labeling of Stop-POST5 (Stop-POST5 complex)	share of photoincorporation found in RNA components of Stop-POST5 (Stop-POST5 complex)	KA, AzAt photoincorporation into Stop-POST5 (Stop-POST5 complex; fit to eq (1), FIG. 2B)	share of RNA photoincorporation found within 18S and 26S rRNA (Stop-POST5 complex; urea-PAGE analysis)
O=C(O)c1cccc(-c2noc(-c3ccccc3F)n2)c1 [Ataluren]	no effect						
[N-]=[N+]=Nc1ccc(-c2nc(-c3cccc(C(=O)O)c3)no2)cc1 [AzAt]		25%	50 ± 10 µM	1.2 /Stop-POST5	More than 80%	120 ± 60 µM	> 90%
